From patent US20230391824A1, “RATIONALE, DESIGN, SYNTHESIS AND VALIDATION OF A SMALL MOLECULE ANTICANCER AGENT” (priority 2021, published 2023) come the findings set out here.

Experiment [1] relates to NT-2 testicular cancer cells. Description: Flow cytometric (propidium iodide) cell cycle analysis of NT-2 cells. It is filed as cell-based. The conditions noted are these: first 24h. The method, then:
FIG. 9: NT-2, testicular cancer cells, were incubated with Compound of formula (I) isomers for 24h and subjected to Flow Cytometric analysis to determine the alterations in cancer cell cycle. […] Therefore, only the P1 isomer of Compound of formula (I) was investigated further to determine its in vitro and in vivo efficacy.
The method for Propidium Iodide (PI) based cell cycle analysis was performed as per the instructions given by the manufacturer (AB139418; Abcam). Briefly NT-2 cells treated with Compound of formula (I) versions were harvested in single cell suspensions with each experimental condition containing two million cells, fixed in 66% Ethanol overnight at 4° C. The ethanol was removed thoroughly by centrifugation, followed by rehydration of cells in PBS with a repeat of centrifugation. Cells were stained in PI (1%) and RNase solution (1%) in PBS for 30 minutes at 37° C. in the dark. The cells were analyzed immediately on the Flow Cytometer.
(Flow cytometry measures light scatter and fluorescence of single cells or particles in a stream.)

For another experiment, the system named is YP-MEL NCM tumor. Description: YP-MEL NCM tumor xenograft in SCID mice. It is filed as in vivo. The note with it: female SCID mice, 4 mg/kg I.P, every 2 days. The method, then:
FIG. 13A&B: Female SCID YP-MEL NCM tumor bearing mice treated with 4 mg/kg Compound of formula (I) (P1 version) intraperitoneally (I.P). […] (B) Tumor areas were measured with a Vernier caliper (prior to each treatment cycle). Animals were euthanized when the control (0.1% DMSO:PBS) treated mice reached the defined endpoint of 225 mm^2. Data representative of at least 5 independent experiments.
All animal procedures were carried out in accordance with the guidelines of the Canadian Council on Animal Care and the NIH guidelines on the care and use of laboratory animals. All protocols were reviewed and approved by the Animal Care Committee of the University of Calgary (Protocol approval number: AC21-0147). Six- to eight-week-old female or male CB17 severe combined immunodeficiency (SCID) mice (Charles River Laboratories, Saint-Constant, QC, Canada) were subcutaneously injected in the right flank with 3×10^6 YP-MEL or NT-2 cells suspended in 0.1 mL sterile PBS. After tumor injection, animals with detectable tumor growth of at least 50 mm^2 were randomized into groups. […] Animals and respective cages were monitored for food and bedding supplies daily; doses were injected every 2 days and tumor areas were measured with a Vernier caliper (prior to each treatment cycle). […]

The next experiment deals with NT-2 testicular tumor. Description: NT-2 testicular tumor xenograft in SCID mice. The conditions noted are these: male SCID mice; for growth of NT-2 tumors: every 2 days. It is filed as in vivo. The method, then: FIG. 14A-C: Male SCID NT-2 testicular tumor bearing mice treated with 4 mg/kg Compound of formula (I) (P1 version) via oral route of administration (P.O). […] Tumor areas were measured with a Vernier caliper (prior to each treatment cycle). Animals were euthanized when the control (0.1% DMSO:PBS) treated mice reached the defined endpoint of 225 mm^2. Data representative of at least 5 independent experiments. […] (B) is a graph depicting percentage change of tumour volume versus days after the first treatment. (C) is a graph depicting percentage survival versus days after the first treatment.
FIG. 15A-D: Male SCID NT-2 testicular tumor bearing mice treated with 4 mg/kg Compound of formula (I) (P1 version) via intraperitoneal route of administration (I.P). […] Tumor areas were measured with a Vernier caliper (prior to each treatment cycle). Animals were euthanized when the control (0.1% DMSO:PBS) treated mice reached the defined endpoint of 225 mm^2. Data representative of at least 5 independent experiments. […] (B) is a graph depicting percentage of tumour size versus days after the first treatment. (C) is a graph depicting percentage survival versus days after the first treatment. (D) is a photograph showing excised tumours.
FIG. 16A&B: Male SCID NT-2 testicular tumor bearing mice treated with 4 mg/kg Compound of formula (I) (P1 isomer) via intravenous route of administration (I.V). […] Tumor areas were measured with a Vernier caliper (prior to each treatment cycle). Animals were euthanized when the control (0.1% DMSO:PBS) treated mice reached the defined endpoint of 225 mm^2. Data representative of at least 5 independent experiments. (A) is a photograph showing excised tumours. (B) is graph depicting percentage of tumor size versus number of treatments.
All animal procedures were carried out in accordance with the guidelines of the Canadian Council on Animal Care and the NIH guidelines on the care and use of laboratory animals. All protocols were reviewed and approved by the Animal Care Committee of the University of Calgary (Protocol approval number: AC21-0147). Six- to eight-week-old female or male CB17 severe combined immunodeficiency (SCID) mice (Charles River Laboratories, Saint-Constant, QC, Canada) were subcutaneously injected in the right flank with 3×10^6 YP-MEL or NT-2 cells suspended in 0.1 mL sterile PBS. After tumor injection, animals with detectable tumor growth of at least 50 mm^2 were randomized into groups. The groups were treated with either 0.1% DMSO:PBS vehicle or 4 mg/kg of Compound of formula (I) dissolved in the vehicle, intraperitoneally (I.P), orally (P.O) or intravenously (I.V). Animals and respective cages were monitored for food and bedding supplies daily; doses were injected every 2 days and tumor areas were measured with a Vernier caliper (prior to each treatment cycle). When vehicle treated tumors reached the defined endpoint of 225 mm^2, every mouse in the group were euthanized. Tumors were excised and immediately imaged and processed for western blotting or fixed in paraformaldehyde for toxicology evaluation. (A)

In the case of `CC[C@H](C)[C@H](NC(=O)[C@H](Cc1ncc[nH]1)NC(=O)c1cccc(C(N)=O)c1)C(=O)Nc1ccc(O)c(-c2nc3ccccc3s2)c1` [Compound P1], the “share of total cell count that had undergone cell death” value in experiment [1] is reported as “approximately 10%”. Besides, the “growth of NCM tumors” value in the experiment with YP-MEL NCM tumor was “significantly reduced the growth”. In addition, the “treated animals that survived tumor-free for 120 days” value in the experiment with NT-2 testicular tumor (4 mg/kg I.P) is given as “at least 50%”. Besides, the “growth of NT-2 tumors” value in the experiment on NT-2 testicular tumor (4 mg/kg I.P), with NT-2 testicular tumor (4 mg/kg I.V) and in the experiment on NT-2 testicular tumor (4 mg/kg P.O) was “significantly reduced the growth” in each case. The tumor shrinkage entry in the experiment on NT-2 testicular tumor (4 mg/kg I.V, with only 4 doses) is reported as “in some cases showed complete shrinkage”.
